Assays:
[1] = tested on: Plk1, Cyclin B1 and pHH-3 in HeLa cells; assay: Western blot of mitotic markers; assay type: cell-based, human; details: synchronized HeLa, 50 ng/mL, 16 hrs, control for mitotic arrest
Method: HeLa cells were collected after trypsinization and lysed with RIPA buffer. Equal amount of proteins (30 μg/lane) were loaded, separated by 15% SDS-PAGE. After blocking with blocking buffer for 2 hrs at RT, the membrane was incubated with the following primary antibodies diluted in blocking buffer overnight at 4°C: anti-hPlk1 mouse monoclonal antibody (Cat# P5998; Sigma; 1:3000), anti-CyclinB1 rabbit polyclonal antibody (Cat# SAB4503501; Sigma; 1:2000), anti-pHH3 rabbit monoclonal antibody (Cat# 04-817; Millipore; 1:2000), anti-GAPDH rabbit polyclonal antibody (Cat# P30008; Abmart; 1:2000). The membrane was washed 3 times and then incubated with Horseradish Peroxidase-conjugated secondary antibodies for 1 hr at RT and visualized with ECL system (Millipore). The level of GAPDH was used as the loading control.

Plk2 PBD = biological target: T1, Plk2 PBD (Homo sapiens, UniProt Q9NYY3); assay: Fluorescence polarization assay, Plk2 PBD / FITC-labeled phosphopeptide; assay type: binding; details: FP assay, 1 hr preincubation at RT, read-out: Apparent IC50
T1 construct: (326-603 aa), Plk2 (355-685 aa), and Plk3 (335-646 aa); GST (N); made in house; host or cells: E. coli Rosetta BL21(DE3)
T1 sequence (Q9NYY3 355-685): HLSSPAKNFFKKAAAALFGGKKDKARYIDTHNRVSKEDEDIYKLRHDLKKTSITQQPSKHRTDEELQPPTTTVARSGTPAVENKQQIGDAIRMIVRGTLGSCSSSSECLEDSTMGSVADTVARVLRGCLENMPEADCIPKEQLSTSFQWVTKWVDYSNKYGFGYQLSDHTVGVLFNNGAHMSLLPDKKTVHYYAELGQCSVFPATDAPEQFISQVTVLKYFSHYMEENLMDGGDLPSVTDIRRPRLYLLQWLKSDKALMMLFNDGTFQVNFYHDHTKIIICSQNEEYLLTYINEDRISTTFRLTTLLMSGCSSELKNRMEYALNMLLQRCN
Method: FP assay was performed as follow. Briefly, 30 μL Plk1 PBD proteins (400 nM) were incubated with 0.3 μL tested compounds (1 mg/mL) with shaking for 1 hr at room temperature (RT) prior to addition of 30 μL FITC-Poloboxtide (FITC-GPMQSpTPLNG-OH; λex/λem: 485/535 nm; 60 nM) in FP buffer (50 mM Tris-HCl, 10 mM NaCl, 1 mM EDTA pH8.0). Three wells containing 30 μL FITC-Poloboxtide (60 nM) and 30 μL Plk1 PBD (400 nM) were used as negative control (0% inhibition); three wells containing 60 μL FITC-Poloboxtide (30 nM) only were used as positive control (100% inhibition). Fluorescence polarization was analyzed after incubation of FITC-Poloboxtide for 15 min in a 384-well black opaque microplate (Cat# 6007270, PerkinElmer) using Envision Multilabel Reader (PerkinElmer) at 25°C. We calculated the percentage of inhibition for each sample as follows: Inhibition(%)=Negative−Sample/Negative−Positive×100%
We plotted the inhibition values and determined IC50 using GraphPad Prism5.0. Together with the FITC-labeled peptides used for Plk1 PBD as mentioned above, the following peptides were used for specificity assays, FITC-GPMQTSpTPKNG-OH (Plk2 PBD), FITC-GPLATSpTPKNG-OH (Plk3 PBD). As described above for the FP assay, proteins were used at the following final concentrations: Plk1 PBD, 200 nM; Plk2 PBD, 450 nM; Plk3 PBD, 600 nM. All FITC-labeled peptides were chemically synthesized (China Peptides Co., Ltd., Shanghai) and further verified by mass spectrometry, and the purity is more than 95.0%.

Plk3 PBD = biological target: T2, Plk3 PBD (Homo sapiens, UniProt Q9H4B4); assay: Fluorescence polarization assay, Plk3 PBD / FITC-labeled phosphopeptide; assay type: binding
T2 construct: (326-603 aa), Plk2 (355-685 aa), and Plk3 (335-646 aa); GST (N); made in house; host or cells: E. coli Rosetta BL21(DE3)
T2 sequence (Q9H4B4 335-646): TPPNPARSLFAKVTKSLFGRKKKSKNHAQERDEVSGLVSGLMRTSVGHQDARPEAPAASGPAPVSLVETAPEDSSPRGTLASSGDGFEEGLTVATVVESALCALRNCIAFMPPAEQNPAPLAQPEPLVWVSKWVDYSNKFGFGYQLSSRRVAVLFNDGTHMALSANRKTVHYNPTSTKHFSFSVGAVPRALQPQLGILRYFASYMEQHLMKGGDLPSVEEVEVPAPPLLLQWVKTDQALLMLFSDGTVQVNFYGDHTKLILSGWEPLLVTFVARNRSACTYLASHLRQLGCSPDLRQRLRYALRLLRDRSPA
Method: FP assay was performed as follow. […] We calculated the percentage of inhibition for each sample as follows: Inhibition(%)=Negative−Sample/Negative−Positive×100%
We plotted the inhibition values and determined IC50 using GraphPad Prism5.0. Together with the FITC-labeled peptides used for Plk1 PBD as mentioned above, the following peptides were used for specificity assays, FITC-GPMQTSpTPKNG-OH (Plk2 PBD), FITC-GPLATSpTPKNG-OH (Plk3 PBD).

| SMILES | mitotic markers (Plk1, Cyclin B1, pHH-3) protein levels [1] | IC50 (Plk2 PBD) [µM] | IC50 (Plk3 PBD) [µM] |
| --- | --- | --- | --- |
| COC(=O)Nc1nc2ccc(C(=O)c3cccs3)cc2[nH]1 [Nocodazole, reference compound] | increase of protein levels | – | – |
| CC1=CC(=O)C(C(C)C)=C/C1=N/OC(=O)c1ccccc1C [Poloxin, reference compound] | – | 15.6 ± 2.26 | – |
| CC1=CC(=O)C(C(C)C)=CC1=O [TQ, Thymoquinone, reference compound] | – | 3.65 ± 0.96 | 18.9 ± 1.32 |

From PMC5352051, “Identification of a novel Polo-like kinase 1 inhibitor that specifically blocks the functions of Polo-Box domain” (Oncotarget, 2016)
